Results reported in US7723523B2, “Tetrahydropyridothiophenes” (4SC AG, priority 2004, dated 2010).

How the values were obtained:
[1] = test system: RKO colon adenocarcinoma cells (RKOp27) arrested by expression of ectopic p27Kip1; assay: Alamar Blue cell viability assay on RKOp27 cells arrested by Ponasterone A-induced p27Kip1 (cell cycle specific mode of action); assay type: cell-based; conditions: Homo sapiens, RKOp27, 72 h, cells arrested by p27Kip1 induced with 10 μM Ponasterone A, 72 hours incubation, read-out: IC50 RKO p27 arrested
Description: To determine the cell cycle specific mode of action, subclones of RKO colon adenocarcinoma cells (RKOp27 or RKOp21 as described by Schmidt et al. in Oncogene 19, 2423-2429; 2000) are seeded into 96 well flat bottom plates at a density of 16000 cells per well in a volume of 50 μl per well in DMEM growth medium with 10% FCS containing 10 μM Ponasterone A. 24 hours after seeding 50 μl each of the compound dilutions in DMEM are added into each well of the 96 well plate. Each compound dilution is tested as quadruplicates. Wells containing untreated control cells are filled with 50 μl DMEM containing 1% DMSO. The cells are then incubated with the substances for 72 hours at 37° C. in a humidified atmosphere containing 5% carbon dioxide. To determine the viability of the cells, 10 μl of an Alamar Blue solution (Biosource) are added and the fluorescence is measured at an extinction of 544 nm and an emission of 590 nm. For the calculation of the cell viability the emission value from untreated cells is set as 100% viability and the emission rates of treated cells are set in relation to the values of untreated cells. Viabilities are expressed as % values. Viability is compared of proliferating cells grown in the absence of the inducer Ponasterone A, versus viability of cells arrested by the expression of ectopic p27Kip1 induced by Ponasterone A. The data of this experimental setting are summarized in table A (2nd column).

[2] = test system: RKO (RKOp27) human colon adenocarcinoma cells; assay: Alamar Blue cell viability assay, anti-proliferative/cytotoxic activity on proliferating RKOp27 cells; assay type: cell-based; conditions: absence of Ponasterone A, 72 hours incubation, read-out: IC50 RKO p27 proliferating
Description: The anti-proliferative/cytotoxic activity of the compounds described herein, can be tested on subclones of RKO (RKOp27) human colon adenocarcinoma cells (Schmidt et al., Oncogene 19, 2423-2429; 2000) using the Alamar Blue cell viability assay (described in O'Brien et al. Eur J Biochem 267, 5421-5426, 2000). The compounds are dissolved as 20 mM solutions in dimethylsulfoxide (DMSO) and subsequently diluted in semi-logarithmic steps. DMSO dilutions are further diluted 1:100 into Dulbecco's modified Eagle's medium (DMEM) containing 10% fetal calf serum to a final concentration twice as much as the final concentration in the test. RKO subclones are seeded into 96 well flat bottom plates at a density of 4000 cells per well in a volume of 50 μl per well. 24 hours after seeding 50 μl each of the compound dilutions in DMEM are added into each well of the 96 well plate. Each compound dilution is tested as quadruplicates. Wells containing untreated control cells are filled with 50 μl DMEM containing 1% DMSO. The cells are then incubated with the substances for 72 hours at 37° C. in a humidified atmosphere containing 5% carbon dioxide. To determine the viability of the cells, 10 μl of an Alamar Blue solution (Biosource) are added and the fluorescence is measured at an extinction of 544 nm and an emission of 590 nm. For the calculation of the cell viability the emission value from untreated cells is set as 100% viability and the emission rates of treated cells are set in relation to the values of untreated cells. Viabilities are expressed as % values.
The corresponding IC50 values of the compounds for anti-proliferative/cytotoxic activity are determined from the concentration-effect curves.
Representative IC50 values for anti-proliferation/cytotoxicity determined in the aforementioned assay are described in the table A (1st column), in which the numbers of the compound correspond to the numbers of the examples.

IC50 [1] [µM] | Structure (SMILES) | IC50 [2] [µM]
≥ 100 | N#Cc1c(NC(=O)/C=C/c2ccccc2)sc2c1CCN(C(=O)OCCO)C2 [Example 135, 3-Cyano-2-((E)-3-phenyl-allanoylamino)-4,7-dihydro-5H-thieno[2,3-c]pyridine-6-carboxylic acid 2-hydroxy-ethyl ester] | ≤ 2
≥ 100 | COCCOC(=O)N1CCc2c(sc(NC(=O)/C=C/c3ccccc3OC)c2C#N)C1 [Example 137, 3-Cyano-2-[(E)-3-(2-methoxy-phenyl)-allanoylamino]-4,7-dihydro-5H-thieno[2,3-c]pyridine-6-carboxylic acid 2-methoxy-ethyl ester] | ≤ 2
≥ 50 | CCCOc1ccccc1/C=C/C(=O)Nc1sc2c(c1C#N)CCN(C(=O)OCC)C2 [Example 99, 3-Cyano-2-[(E)-3-(2-propoxy-phenyl)-allanoylamino]-4,7-dihydro-5H-thieno[2,3-c]pyridine-6-carboxylic acid ethyl ester] | ≤ 0.5
≥ 100 | CN(C)C(=O)CCC(=O)N1CCc2c(sc(NC(=O)/C=C/c3ccccc3)c2C#N)C1 [Example 178, 4-[3-Cyano-2-((E)-3-phenyl-allanoylamino)-4,7-dihydro-5H-thieno[2,3-c]pyridin-6-yl]-N,N-dimethyl-4-oxo-butyramide] | ≤ 2
> 100 | CC(=O)N1CCc2c(sc(NC(=O)/C=C/c3ccccc3)c2C#N)C1 [Example 34, (E)-N-(6-Acetyl-3-cyano-4,5,6,7-tetrahydro-thieno[2,3-c]pyridin-2-yl)-3-phenyl-acrylamide] | ≤ 2

The next lines start with the compound.

Structure (SMILES) | IC50 [1] [µM] | IC50 [2] [µM]
N#Cc1c(NC(=O)/C=C/c2ccccc2)sc2c1CCN(C(=O)CO)C2 [Example 187, (E)-N-[3-Cyano-6-(2-hydroxy-ethanoyl)-4,5,6,7-tetrahydro-thieno[2,3-c]pyridin-2-yl]-3-phenyl-acrylamide] | ≥ 100 | ≤ 2
CCOC(=O)N1CCc2c(sc(NC(=O)/C=C/c3ccc[nH]3)c2C#N)C1 [Example 103, 3-Cyano-2-((E)-3-1-H-pyrrol-2-yl-allanoylamino)-4,7-dihydro-5H-thieno[2,3-c]pyridine-6-carboxylic acid ethylester] | ≥ 100 | ≤ 2
CCCCCSC(=O)N1CCc2c(sc(NC(=O)/C=C/c3ccccc3)c2C#N)C1 [Example 49, 3-Cyano-2-((E)-3-phenyl-allanoylamino)-4,7-dihydro-5H-thieno[2,3-c]pyridine-6-carbothioic acid S-pentyl ester] | ≥ 100 | ≤ 2
CCOC(=O)N1CCc2c(sc(NC(=O)/C=C/c3cc(F)ccc3C)c2C#N)C1 [Example 79, 3-Cyano-2-[(E)-3-(5-fluoro-2-methyl-phenyl)-allanoylamino]-4,7-dihydro-5H-thieno[2,3-c]pyridine-6-carboxylic acid ethyl ester] | ≥ 100 | ≤ 2
CCOC(=O)N1CCc2c(sc(NC(=O)/C=C/c3c(F)ccc(F)c3F)c2C#N)C1 [Example 68, 3-Cyano-2-[(E)-3-(2,3,6-trifluoro-phenyl)-allanoylamino]-4,7-dihydro-5H-thieno[2,3-c]pyridine-6-carboxylic acid ethyl ester] | ≥ 100 | ≤ 2
CCCCOC(=O)N1CCc2c(sc(NC(=O)/C=C/c3cccnc3)c2C#N)C1 [Example 43, 3-Cyano-2-((E)-3-pyridin-3-yl-allanoylamino)-4,7-dihydro-5H-thieno[2,3-c]pyridine-6-carboxylic acid butyl ester] | > 100 | ≤ 2
COCCOC(=O)N1CCc2c(sc(NC(=O)/C=C/c3ccco3)c2C#N)C1 [Example 240, 3-Cyano-2-((E)-3-furan-2-yl-allanoylamino)-4,7-dihydro-5H-thieno[2,3-c]pyridine-6-carboxylic acid 2-methoxy-ethyl ester] | ≥ 100 | ≤ 2
